Columns and labels:
[1] = system: memory disruption induced by hypoxia, male CD rats; assay: Rat Passive Avoidance (PA) Hypoxia Induced Amnesia; type: in vivo, rat (male CD); conditions: Table II; SC; median retention latency vs vehicle
Excerpt: Rat Passive Avoidance (PA) Hypoxia Induced Amnesia:
Unfasted male CD rats, weighing between 165-210 grams, were trained in a PA apparatus using the following procedure: rats were placed in the clear side of the two compartment chamber and allowed 90 seconds to enter the dark compartment. Ten seconds after entering the dark chamber, a 3 second footshock (1.0 mA) was applied to the grid floor followed by an additional 10 second delay, and another 3 second footshock was applied. Retentions were tested 4 hours later. The rats were allowed 300 seconds to enter the dark compartment; time was taken. Memory disruption was induced by exposing the rats to a gas mixture containing 6.5% oxygen supplemented with nitrogen for 30 minutes before passive avoidance training. Doses of the test compound were administered (0.1 ml/100 g, SC.) relative to time of PA training.

[2] = system: stimulus-induced acetylcholine release, slices from the parietal cortex; assay: Neurotransmitter (ACh) release assay, rat cortex slices, K+ stimulated; type: cell-based, rat (male Wistar); conditions: for EC50: Table III
Procedure: The neurotransmitter release activities of the compounds of this invention were determined using standard biochemical assay procedures for example, the neurotransmitter release assay as described below.
Neurotransmitter release assay.
The neurotransmitter (Ach) release activities of the compounds of this invention were determined by the assay as described by Nickolson, et al., Drug Development Research, (1990) 19: 285-300, a modification of the procedure described by Mulder, et al., Brain Res., (1974) 70: 372.
Male Wistar rats (Charies River) weighing 175-200 grams were used. Rats were decapitated and brains were dissected immediately. Slices (0.3 mm thick) from the parietal cortex were prepared (approximately 100 mg wet weight) and were incubated in 10 ml KrebsRinger medium (KR) containing NaCl (116 mM), KCl (3 mM), CaCl2 (1.3 mM), MgCl2 (1.2 mM), KH2 PO4 (1.2 mM), Na2 SO4 (1.2 mM), NaHCO3 (25.0 mM), and glucose (11.0 mM), to which was added 10 uCi ^3 H-choline (specific activity approximately 35 Ci/mM; NEN) and […] unlabeled choline to give a final concentration of one micromole. The brain preparations were incubated for 30 min. at 37° C. under a steady flow of 95% O2 /5% CO2. Under these conditions, part of the radioactive choline taken up by the preparation was converted into radioactive acetylcholine (ACh) by the cholinergic nerve endings stored in synaptic vesicles, and released upon depolarization by high potassium ion (K+) containing media.
After labelling of the ACh stores, the slices were washed three times with non-radioactive KR medium and transferred to a superfusion apparatus to measure the drug effects on ACh release. The superfusion apparatus consisted of 10 thermostated glass columns of 5 mm diameter that were provided with GF/F glass fiber filters to support the slices (approximately 10 mg tissue/column). Superfusion was carried out in KR-medium (0.3 ml/min.) containing […] hemicholine-3 (HC-3). The HC-3 prevents the reuptake of choline formed during the superfusion from phospholipids and released ACh, which would be converted into unlabeled ACh and released in preference to the preformed labeled ACh. The medium was delivered by a 25-channel peristaltic pump (Ismatec by Brinkman) and warmed to 37° C. in a thermostated stainless steel coil before entering the superfusion column. Each column was provided with a 4-way slider valve (Beckmann instruments) which allowed rapid change of low to high K+/KR-medium, and with two 10-channel 3-way valves that were used to change from drug-free to drug-containing low and high K+/KR-medium. After 15 min. of washout of non-specifically bound radioactivity, collection of 4 min. fractions was initiated. After three 4 min. collections, the original medium was changed to a KR-medium in which the KCl concentration had been increased to 25 mM (high K+ medium) (S1). Depolarization-induced stimulation of release by high K+/KR-medium lasted for 4 min. Drug free low and high K+/KR-media were then substituted by drug- and vehicle-containing low- and high-K+/KR-medium, and superfusion was continued for three 4 min. collections with low K+/KR-medium, one 4 min. collection with high K+/KR-medium (s2), and two 4 min. collections with low K+/KR-medium.
Drug was added to the media by 100-fold dilutions of appropriate concentrations of the drug (in 0.9% saline) with either low- or high-K+/KR-medium. For comparative purposes, linopirdine was also run.
All superfusion fractions were collected in liquid scintillation counting vials. After superfusion, the slices were removed from the superfusion columns and extracted with 1.0 ml of 0.1N HCl. Liquiscint (NEN) counting fluid (12 ml) was added to superfusion fractions and extracts, and the samples were counted in a Packard Tricarb Liquid Scintillation Counter. No corrections were made for quenching. […]

[3] = system: ACh level in the rat hippocampus; assay: Microdialysis, ACh levels in the rat hippocampus in vivo; parameters: species or system rat (male Wistar); conditions: for AUC, Area % under the curve / Peak, maximal % increase of ACh release over baseline / time of Peak after administration / Duration, minutes of release above statistical significance: Table IV
Procedure: Male Wistar Rats are anaesthetized and guide cannulas stereotaxically implanted into the brain at the level of the dorsal hippocampus. Following a minimum recovery period of 72 h, dialysis probes (0.5 mm diameter, 4.0 mm long, from BAS) are inserted into the hippocampus through the guide cannulas. The probes are perfused at a rate of 2 μl/min with artificial cerebrospinal fluid containing 100 μM physostigmine sulfate (a cholinesterase inhibitor). Rats are allowed to acclimate for 2 hours prior to sample collection. Dialysate samples are collected every 20 min (40 μl) and immediately injected onto a high performance liquid chromatograph equipped for electrochemical detection (HPLC-EC) of acetylcholine (ACh). Following collection of 3 baseline samples, drugs or vehicle control are administered in 0.01 ml/g body weight and dialysate samples are collected for an additional 3 h. The ACh peak heights of the 3 samples prior to drug administration are averaged together to determine baseline ACh levels. ACh peak heights post drug administration are measured and used to determine percent change over baseline ACh levels. At the end of experiments, probe placement is verified histologically.
ACh is separated by reverse phase chromatography (Hamilton PRP-1 column 150×4.5 mm) and converted to acetate, betaine and hydrogen peroxide on an immobilized enzyme reactor column (BAS). Hydrogen peroxide is then detected electrochemically. Mobile phase for the chromatography consists of 0.2M Na2 HPO4, 0.1 mM EDTA, 0.5 mM SOS, 0.9 mM TMA.Cl, with pH adjusted to 8.0 with phosphoric acid and […] Kathon CG (ESA) added to each liter of mobile phase to retard bacterial growth.
FIGS. 1 and 2 show the effects of fluorine substitution to the pendant groups of the anthrone and azafluorene core series on the ability of compounds to increase the level of ACh in the rat hippocampus in vivo. All compounds were tested at 5 mg/kg except Ex. No 64 which was administered at 1 mg/kg. […] This was observed even though the compound was administered by a route (i.p.) which should lead to greater bioavailability than the oral route. Example 68 of the present invention, the bis-fluorinated analog of Example 611 or U.S. Pat. No. 5,173,489, on the other hand, led to a 2-fold increase in ACh levels which was maintained for over 1 hour (FIG. 1). The anthrone compound Ex. No. 440 of U.S. Pat. No. 5,173,489, at 5 mg/kg, led to a peak ACh level of 72% over baseline (FIG. 2). Ex. No. 64 of the present invention, which is the bis-fluoro analog of Ex. No. 440 of U.S. Pat. No. 5,173,489, at 1 mg/kg, led to a delayed increase in ACh levels reaching a peak of over 100% above baseline (FIG. 2). In contrast to the observed effects of Example 440 of U.S. Pat. No. 5,173,489, the increase in ACh level after administration of Example 64 of the present invention was maintained for the entire duration of testing (3 hours).

[4] = 5 mg/kg, vehicle methocel, NSP = no significant points
[5] = 1 mg/kg, vehicle methocel, NSP = no significant points
[6] = 5 mg/kg, vehicle water, NSP = no significant points

Row | Structure (SMILES) | EC50 [2] | AUC, Area % under the curve ([3]; 5 mg/kg, vehicle methocel) | Peak, maximal % increase of ACh release over baseline ([3]; 5 mg/kg, vehicle methocel) | time of Peak after administration ([3]; 5 mg/kg, vehicle methocel) | Duration, minutes of release above statistical significance [3, 4] | further results
1 | c1ccc(Cn2ncc3c2-c2ccccc2C3(Cc2ccncc2)Cc2ccncc2)cc1 [Example 14, 1,4-Dihydro-1-(phenylmethyl)-4,4-bis(4-pyridinylmethyl)indeno[1,2-C]pyrazol] | – | – | – | – | – | PA Hypoxia [1]: Active; activation at 10 µM ([2]; Table II, 10 μM, % increase of drug-induced ACh release): 533%
2 | Fc1cc(CC2(Cc3ccncc3)c3ccccc3Oc3ccccc32)ccn1 [Example 65, 9-((2-Fluoro-4-pyridinyl)methyl)-9-(4-pyridinylmethyl)-9H-xanthene] | 820 nM | 147 ± 69% | 40 ± 11% | 20 min | 60 min | –
3 | Fc1cc(CC2(Cc3ccnc(F)c3)c3ccccc3Oc3ncccc32)ccn1 [Example 67, 9,9-Bis((2-fluoro-4-pyridinyl)methyl)-4-azaxanthene] | 640 nM | 1423 ± 595% | 199 ± 80% | 160 min | > | AUC, Area % under the curve ([3]; 1 mg/kg, vehicle methocel): 666 ± 212%; Peak, maximal % increase of ACh release over baseline ([3]; 1 mg/kg, vehicle methocel): 123 ± 62%; time of Peak after administration ([3]; 1 mg/kg, vehicle methocel): 200 min; Duration, minutes of release above statistical significance [3, 5]: >
4 | Fc1cc(CC2(Cc3ccnc(F)c3)c3ccccc3-c3ncccc32)ccn1 [Example 68, 5,5-Bis((2-fluoro-4-pyridinyl)methyl)-5H-indeno[1,2-b]pyridine] | 760 nM | 942 ± 324% | 201 ± 68% | 80 min | > 80 min | increase in ACh levels ([3]; 5 mg/kg oral, FIG. 1): 2 fold; time for which the increase in ACh levels was maintained ([3]; 5 mg/kg oral, FIG. 1): over 1 hour; AUC, Area % under the curve ([3]; 1 mg/kg, vehicle methocel): 304 ± 88%; Peak, maximal % increase of ACh release over baseline ([3]; 1 mg/kg, vehicle methocel): 74 ± 29%; time of Peak after administration ([3]; 1 mg/kg, vehicle methocel): 100 min; Duration, minutes of release above statistical significance [3, 5]: 120 min; AUC, Area % under the curve ([3]; 2 mg/kg, vehicle water): 240 ± 82%; Peak, maximal % increase of ACh release over baseline ([3]; 2 mg/kg, vehicle water): 47 ± 12%; time of Peak after administration ([3]; 2 mg/kg, vehicle water): 40 min; AUC, Area % under the curve ([3]; 5 mg/kg, vehicle water): 871 ± 272%; Peak, maximal % increase of ACh release over baseline ([3]; 5 mg/kg, vehicle water): 121 ± 25%; time of Peak after administration ([3]; 5 mg/kg, vehicle water): 100 min; Duration, minutes of release above statistical significance [3, 6]: 120 min
5 | Fc1cc(CC2(Cc3ccnc(F)c3)c3cccnc3-c3sccc32)ccn1 [Example 69, 4,4-Bis((2-fluoro-4-pyridinyl)methyl)-4H-thieno[3',2':4,5]cyclopenta[1,2-b]pyridine] | 650 nM | – | – | – | – | AUC, Area % under the curve ([3]; 5 mg/kg, vehicle water): 285 ± 40%; Peak, maximal % increase of ACh release over baseline ([3]; 5 mg/kg, vehicle water): 44 ± 14%; time of Peak after administration ([3]; 5 mg/kg, vehicle water): 20 min; Duration, minutes of release above statistical significance [3, 6]: 40 min
6 | COc1ccc2c(c1)C(Cc1ccnc(F)c1)(Cc1ccnc(F)c1)c1ccccc1-2 [Example 71, 9,9-Bis((2-fluoro-4-pyridinyl)methyl)-2-methoxyfluorene] | 1240 nM | 126 ± 74% | 34 ± 16% | 60 min | NSP | –
7 | COc1ccc2c(c1)C(Cc1ccnc(F)c1)(Cc1ccnc(F)c1)c1cccnc1O2 [Example 72, 9,9-Bis((2-fluoro-4-pyridinyl)methyl)-7-methoxy-4-azaxanthene] | 850 nM | 138 ± 109% | 34 ± 22% | 60 min | NSP | –
8 | Fc1cc(CC2(Cc3ccnc(F)c3)c3cccnc3-c3cccnc32)ccn1 [Example 75, 9,9-Bis((2-fluoro-4-pyridinyl)methyl)-cyclopenta[1,2-b:3,4-b']dipyridine] | 1210 nM | 302 ± 35% | 67 ± 12% | 20 min | 60 min | –
9 | Fc1cc(CC2(Cc3ccnc(F)c3)c3ccccc3-c3nc(-c4ccccc4)ncc32)ccn1 [Example 76, 5,5-Bis((2-fluoro-4-pyridinyl)methyl)-2-phenyl-5H-indeno[1,2-d]pyrimidine] | 660 nM | 96 ± 67% | 39 ± 25% | 20 min | NSP | –
10 | Fc1cc(CC2(Cc3ccnc(F)c3)c3ccccc3-c3ncncc32)ccn1 [Example 81, 5,5-Bis((2-fluoro-4-pyridinyl)methyl)-5H-indeno-[1,2-d]pyrimidine] | 640 nM | 250 ± 68% | 53 ± 17% | 60 min | 100 min | –
11 | Fc1cc(CC2(Cc3ccnc(F)c3)c3cccnc3-c3ncccc32)ccn1 [Example 97, 5,5-Bis((2-fluoro-4-pyridinyl)methyl)-5H-cyclopenta[2,1-b:3,4-b']dipyridine] | 2620 nM | – | – | – | – | AUC, Area % under the curve ([3]; 10 mg/kg, vehicle methocel): 649 ± 188%; Duration, minutes of release above statistical significance ([3]; 10 mg/kg, vehicle methocel): 120 min; Peak, maximal % increase of ACh release over baseline ([3]; 10 mg/kg, vehicle methocel): 102 ± 29%; time of Peak after administration ([3]; 10 mg/kg, vehicle methocel): 100 min
